Data: publication PMC7968666, “The pharmacokinetics and drug-drug interactions of ivermectin in Aedes aegypti mosquitoes” (PLoS Pathogens, 2021)

System: Aedes aegypti mosquitoes
Experiment: Drug effect on mosquito fecundity (eggs laid after 96 h)
Type: in vivo
Experimental: The mixtures were rotated at room temperature for 30 min to ensure a uniform drug distribution (Rotator Genie, Scientific Industries, Bohemia, USA). […] Twelve hours later, the tap water was also removed to starve the mosquitoes. […] The mosquitoes were then feeding from blood through the netting and the Parafilm membrane. […] The photoperiod of the climate chamber and the insectary were synchronised. […] The engorged mosquitoes were either directly frozen at -20°C or returned to the climate chamber for certain time periods to assess the PK. […] Blood feeding was done as described above. […] In contrast to the PK experiments, the mosquitoes had unlimited access to water because a moistened oviposition substrate was inserted into the paper cup. Fecundity was defined as the total number of eggs laid after 96 h. […] The filter paper served as the oviposition substrate. The cotton wool was soaked with fresh water and covered by a new filter paper after 48, 72, and 96 h post-treatment. After the assay, the eggs were left to mature for 24 h in the insectary. […] R Foundation for Statistical Computing, http://www.R-project.org, Vienna, Austria). Normality was assessed using the Shapiro-Wilk test. For normally distributed data (mortality, fecundity), group differences were assessed with one-way ANOVA testing, and, where applicable, followed up with Tukey's test. Group differences in fertility (not normally distributed) were evaluated with Kruskal-Wallis one-way analysis of variance, and Wilcoxon rank sum testing as post-hoc.

[1] = 4 days, IVM 0.1, KCZ 5, RIF 10, RTV 10, PBO 10 μg/ml in blood, 50 mosquitoes

SMILES: CCC(C)C1OC2(CCC1C)CC1CC(CC=C(C)C(OC3CC(OC)C(OC4CC(OC)C(O)C(C)O4)C(C)O3)C(C)C=CC=C3COC4C(O)C(C)=CC(C(=O)O1)C34O)O2 (stereo not shown) [ivermectin]
- Mosquito fecundity, Batch 1, mg eggs (4 days) [1]: 18.22 mg eggs
- Mosquito fecundity, Batch 2, mg eggs (4 days) [1]: 8.65 mg eggs
- Mosquito fecundity, Batch 3, mg eggs (4 days) [1]: 16.69 mg eggs
- Effect on number of mosquito eggs (fecundity) compared to blank blood (four days, IVM 0.1, RTV 10, PBO 10 μg/ml in blood): reduced the number of mosquito eggs
